This passage reports IC50 results from patent US12247010B2, “Tubulin inhibitors” (LIN BIOSCIENCE PTY LTD., priority 2017, dated 2025).

The assay has as its system U87MG cells. The assay is described as follows: Cytotoxicity assay (cell viability, CellTiter 96 Aqueous MTS). The format is cell-based. As to conditions: Homo sapiens, U-87 MG, 72 h, 72 hours incubation, starting concentration 50 uM, 9 point half log dilution, average where tested repeatedly. In a few lines:
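U87MG cells plated at 7×10^3 cells/well overnight, then treated 72 h with 9-point half-log dilutions from a 50 uM starting concentration. Viability measured with CellTiter 96 Aqueous MTS; IC50 calculated from viability.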
Take `O=C(CCCc1ccc(Cc2ccccc2)cc1)Nc1cccnc1` [Compound 186, 4-(4-benzylphenyl)-N-(pyridin-3-yl)butanamide]: the IC50 (usually the midpoint of a concentration-inhibition curve) was more than 5000 nM.

In turn, `O=C(CCCc1ccc(-c2ccc(C(F)(F)F)cc2F)cc1)Nc1cccnc1` [Compound 189, 4-(2′-fluoro-4′-(trifluoromethyl)-[1,1′-biphenyl]-4-yl)-N-(pyridin-3-yl)butanamide] showed an IC50 of 1000 to 5000 nM. With `O=C(CCCc1ccc(-c2cc3cccnc3cc2F)cc1)Nc1cccnc1` [Compound 190, 4-(4-(7-fluoroquinolin-6-yl)phenyl)-N-(pyridin-3-yl)butanamide], the concentration for half-maximal inhibition (IC50) was less than 500 nM.

Molecule `Cc1nn(C)c2ccc(-c3ccc(CCCC(=O)Nc4cccnc4)cc3)cc12` [Compound 191, 4-(4-(1,3-dimethyl-1H-indazol-5-yl)phenyl)-N-(pyridin-3-yl)butanamide] registered an IC50 of 1000 to 5000 nM. As for `O=C(CCCc1ccc(-c2ccc3nccnc3c2)cc1)Nc1cccnc1` [Compound 192, N-(pyridin-3-yl)-4-(4-(quinoxalin-6-yl)phenyl)butanamide], the figure is 1000 to 5000 nM; as for `O=C(CCCc1ccc(-c2cnn(Cc3ccccc3)c2)cc1)Nc1cccnc1` [Compound 193, 4-(4-(1-benzyl-1H-pyrazol-4-yl)phenyl)-N-(pyridin-3-yl)butanamide], more than 5000 nM; as for `O=C(CCCc1ccc(-c2ccc3[nH]cnc3c2)cc1)Nc1cccnc1` [Compound 195, 4-(4-(1H-benzo[d]imidazol-5-yl)phenyl)-N-(pyridin-3-yl)butanamide], 501 to 1000 nM. In turn, `O=C(CCCc1ccc(-c2ccc3c(c2)CCC(=O)N3)cc1)Nc1cccnc1` [Compound 196, 4-(4-(2-oxo-1,2,3,4-tetrahydroquinolin-6-yl)phenyl)-N-(pyridin-3-yl)butanamide] came in with an IC50 of less than 500 nM.

`O=C(CCCc1ccc(-c2ccc3nccn3c2)cc1)Nc1cccnc1` [Compound 197, 4-(4-(imidazo[1,2-a]pyridin-6-yl)phenyl)-N-(pyridin-3-yl)butanamide] registered an IC50 of more than 5000 nM. As for `O=C(CCCc1ccc(-c2ccc(-n3cccn3)cc2)cc1)Nc1cccnc1` [Compound 198, 4-(4′-(1H-pyrazol-1-yl)-[1,1′-biphenyl]-4-yl)-N-(pyridin-3-yl)butanamide], the figure is 501 to 1000 nM; as for `Cc1ccc2cc(-c3ccc(CCCC(=O)Nc4cccnc4)cc3)ccc2n1` [Compound 199, 4-(4-(2-methylquinolin-6-yl)phenyl)-N-(pyridin-3-yl)butanamide], 501 to 1000 nM; as for `O=C(CCCc1ccc(-c2cc(C(=O)N3CCOCC3)ccc2F)cc1)Nc1cccnc1` [Compound 200, 4-(2′-fluoro-5′-(morpholine-4-carbonyl)-[1,1′-biphenyl]-4-yl)-N-(pyridin-3-yl)butanamide], more than 5000 nM.

Molecule `O=C(CCCc1ccc(-c2ccncc2)cc1)Nc1cccnc1` [Compound 202, N-(pyridin-3-yl)-4-(4-(pyridin-4-yl)phenyl)butanamide] gave an IC50 of more than 5000 nM.

The molecule `Cc1nn(C)cc1-c1ccc(CCCC(=O)Nc2cccnc2)cc1` [Compound 203, 4-(4-(1,3-dimethyl-1H-pyrazol-4-yl)phenyl)-N-(pyridin-3-yl)butanamide] yielded a half-maximal inhibitory concentration (IC50) of more than 5000 nM.

In turn, `O=C(CCCc1ccc(-c2nnco2)cc1)Nc1cccnc1` [Compound 204, 4-(4-(1,3,4-oxadiazol-2-yl)phenyl)-N-(pyridin-3-yl)butanamide] gave a half-inhibitory concentration (IC50) of 1000 to 5000 nM. `O=C(CCCc1ccc(-c2cnc(N3CCOCC3)nc2)cc1)Nc1cccnc1` [Compound 205, 4-(4-(2-morpholinopyrimidin-5-yl)phenyl)-N-(pyridin-3-yl)butanamide] registered an IC50 of more than 5000 nM. As for `O=C(CCCc1ccc(-c2ccc3[nH]ncc3c2)cc1)Nc1cccnc1` [Compound 206, 4-(4-(1H-indazol-5-yl)phenyl)-N-(pyridin-3-yl)butanamide], the figure is less than 500 nM.

The molecule `O=C(CCCc1ccc(-c2ccc3[nH]c(=O)oc3c2)cc1)Nc1cccnc1` [Compound 208, 4-(4-(2-oxo-2,3-dihydrobenzo[d]floxazol-6-yl)phenyl)-N-(pyridin-3-yl)butanamide] had an IC50 of 1000 to 5000 nM. In the case of `O=C(CCCc1ccc(-c2cc3cn[nH]c3cc2F)cc1)Nc1cccnc1` [Compound 209, 4-(4-(6-fluoro-1H-indazol-5-yl)phenyl)-N-(pyridin-3-yl)butanamide] it was less than 500 nM; in that of `O=C(CCCc1ccc(-c2cnc3[nH]ncc3c2)cc1)Nc1cccnc1` [Compound 210, 4-(4-(1H-pyrazolo[3,4-b]pyridin-5-yl)phenyl)-N-(pyridin-3-yl)butanamide], less than 500 nM; in that of `O=C(CCCc1ccc(-c2cnc3c(c2)CCC(=O)N3)cc1)Nc1cccnc1` [Compound 211, 4-(4-(7-oxo-5,6,7,8-tetrahydro-1,8-naphthyridin-3-yl)phenyl)-N-(pyridin-3-yl)butanamide], 1000 to 5000 nM. In the case of `O=C(CCCc1ccc(-c2ccc3[nH]ccc3c2)cc1)Nc1cccnc1` [Compound 213, 4-(4-(1H-indol-5-yl)phenyl)-N-(pyridin-3-yl)butanamide] it was less than 500 nM; in that of `Cc1nn(C)c(C)c1-c1ccc(CCCC(=O)Nc2cccnc2)cc1` [Compound 216, N-(pyridin-3-yl)-4-(4-(1,3,5-trimethyl-1H-pyrazol-4-yl)phenyl)butanamide], more than 5000 nM; in that of `O=C(CCCc1ccc(-c2cscn2)cc1)Nc1cccnc1` [Compound 217, N-(pyridin-3-yl)-4-(4-(thiazol-4-yl)phenyl)butanamide], more than 5000 nM. As for `CCOc1cccc(-c2ccc(CCCC(=O)Nc3cccnc3)cc2)c1F` [Compound 218, 4-(3′-ethoxy-2′-fluoro-[1,1′-biphenyl]-4-yl)-N-(pyridin-3-yl)butanamide], the figure is less than 500 nM; as for `Cc1cccc(-c2ccc(CCCC(=O)Nc3cccnc3)cc2)c1F` [Compound 219, 4-(2′-fluoro-3′-methyl-[1,1′-biphenyl]-4-yl)-N-(pyridin-3-yl)butanamide], less than 500 nM; as for `O=C(CCCc1ccc(-c2cccc(C(F)(F)F)c2F)cc1)Nc1cccnc1` [Compound 220, 4-(2′-fluoro-3′-(trifluoromethyl)-[1,1′-biphenyl]-4-yl)-N-(pyridin-3-yl)butanamide], less than 500 nM.

In the case of `N#Cc1cccc(-c2ccc(CCCC(=O)Nc3cccnc3)cc2)c1F` [Compound 221, 4-(3′-cyano-2′-fluoro-[1,1′-biphenyl]-4-yl)-N-(pyridin-3-yl)butanamide], the IC50 was in the range of 1000 to 5000 nM.

The molecule `O=C(CCCc1ccc(-c2ccc3c(c2)CC(=O)N3)cc1)Nc1cccnc1` [Compound 222, 4-(4-(2-oxoindolin-5-yl)phenyl)-N-(pyridin-3-yl)butanamide] had an IC50 of less than 500 nM. As to `O=C(CCCc1ccc(-c2ccc3[nH]cnc(=O)c3c2)cc1)Nc1cccnc1` [Compound 223, 4-(4-(4-oxo-1,4-dihydroquinazolin-6-yl)phenyl)-N-(pyridin-3-yl)butanamide], the IC50 is more than 5000 nM. `O=C(CCCc1ccc(-c2ccc3c(c2)OCC(=O)N3)cc1)Nc1cccnc1` [Compound 224, 4-(4-(3-oxo-3,4-dihydro-2H-benzo[b][1,4]oxazin-7-triazoloyl)phenyl)-N-(pyridin-3-yl)butanamide] showed a concentration for half-maximal inhibition (IC50) of less than 500 nM.

As for `O=C(CCCc1ccc(-c2cccc(Cl)c2F)cc1)Nc1cccnc1` [Compound 225, 4-(3′-chloro-2′-fluoro-[1,1′-biphenyl]-4-yl)-N-(pyridin-3-yl)butanamide], the IC50 was more than 5000 nM.
